The source of these data is US20070099890A1, “Novel cephalosporin derivatives, its pharmaceutically acceptable salts and manufacturing process thereof” (priority 2003, published 2007).

Values after ≈ are worked out from the molar mass of the structure shown. Read-outs that look alike come from different tables or passages of the source. A value given as a limit tells only on which side of the number the result lay.

What all share (test): In vitro antibacterial activity test (2-fold agar dilution MIC)
What all share (assay type): cell-based
Conditions in all cases: for MIC: read-out: Minimum inhibitory concentrations (MICs)
(In general: Agar dilution tests growth on a series of plates holding different concentrations.)

The subject of test [1] is Staphylococcus aureus 001 (MRSA). On the procedure:
(§1) The in vitro antibacterial activity of the compounds prepared in the Examples of the invention was determined as follows: after incubation of the corresponding bacterium for 18 h at 37° C., minimum inhibitory concentrations (MICs, μg/mL) were determined by the 2-fold agar dilution method with Mueller-Hinton Agar.

For test [2], the system named is Staphylococcus aureus 002 (MRSA). On the procedure:
as §1

In test [3] the test system is Staphylococcus aureus 003 (MRSA). As for the experimental part: as §1
Test [4] relates to Staphylococcus aureus 004 (MRSA). As for the experimental part: as §1
In test [5] the test system is Staphylococcus aureus 005 (MRSA). As for the experimental part: as §1
Test [6] relates to Staphylococcus aureus 006 (MRSA). On the procedure: as §1
The test system of test [7] is Staphylococcus aureus 007 (MRSA). As for the experimental part:
as §1

The subject of test [8] is Staphylococcus aureus 008 (MRSA). On the procedure: as §1
In test [9] the test system is Staphylococcus aureus 009 (MRSA). As for the experimental part: as §1
Test [10] has as its system Staphylococcus aureus 010 (MRSA). On the procedure:
as §1

[11] abbreviates: Staphylococcus aureus, MRSA, 18 h.
[12] abbreviates: MRSA Staphylococcus aureus 001, 2-fold agar dilution, Mueller-Hinton Agar, 18 h at 37° C.
Where [13] appears, read: MRSA Staphylococcus aureus 002, 2-fold agar dilution, Mueller-Hinton Agar, 18 h at 37° C.
[14] abbreviates: MRSA Staphylococcus aureus 003, 2-fold agar dilution, Mueller-Hinton Agar, 18 h at 37° C.
Where [15] appears, read: MRSA Staphylococcus aureus 004, 2-fold agar dilution, Mueller-Hinton Agar, 18 h at 37° C.
Setting [16] is: MRSA Staphylococcus aureus 005, 2-fold agar dilution, Mueller-Hinton Agar, 18 h at 37° C.
[17] abbreviates: MRSA Staphylococcus aureus 006, 2-fold agar dilution, Mueller-Hinton Agar, 18 h at 37° C.
Where [18] appears, read: MRSA Staphylococcus aureus 007, 2-fold agar dilution, Mueller-Hinton Agar, 18 h at 37° C.
[19] abbreviates: MRSA Staphylococcus aureus 008, 2-fold agar dilution, Mueller-Hinton Agar, 18 h at 37° C.
The mark [20] stands for this setting: MRSA Staphylococcus aureus 009, 2-fold agar dilution, Mueller-Hinton Agar, 18 h at 37° C.
The mark [21] stands for this setting: MRSA Staphylococcus aureus 010, 2-fold agar dilution, Mueller-Hinton Agar, 18 h at 37° C.

Consider `CN[C@H](CC(C)C)C(=O)N[C@H]1C(=O)N[C@@H](CC(N)=O)C(=O)N[C@H]2C(=O)N[C@H]3C(=O)N[C@H](C(=O)N[C@H](C(=O)O)c4cc(O)cc(O)c4-c4cc3ccc4O)[C@H](O)c3ccc(c(Cl)c3)Oc3cc2cc(c3O[C@@H]2O[C@H](CO)[C@@H](O)[C@H](O)[C@H]2O[C@H]2C[C@](C)(N)[C@H](O)[C@H](C)O2)Oc2ccc(cc2Cl)[C@H]1O` [vancomycin], for which the MIC was 3.12 µg/mL (≈ 2.16 µM) in test [1] (setting [11]); 1.56 µg/mL (≈ 1.08 µM) in test [2] (setting [11]); 0.781 µg/mL (≈ 0.539 µM) in test [3] (setting [11]); 0.781 µg/mL (≈ 0.539 µM) in test [4] (setting [11]); 0.781 µg/mL (≈ 0.539 µM) in test [5] (setting [11]); 0.781 µg/mL (≈ 0.539 µM) in test [6] (setting [11]). Besides, the MIC in [7] (setting [11]), in [8] (setting [11]), in test [9] (setting [11]) and in test [10] (setting [11]) was 0.781 µg/mL (≈ 0.539 µM) in each case.
For the molecule `O=C(CSc1ccccc1)N[C@@H]1C(=O)N2C(C(=O)O)=C(C=Cc3cc(-c4ccc(Br)cc4)no3)CS[C@H]12` [Compound 30], the “Minimum inhibitory concentrations (MICs)” value in test [1] (setting [12]) amounted to 3.125 µg/mL (≈ 5.22 µM); in test [2] (setting [13]) it was 0.002 µg/mL (≈ 0.00334 µM); in test [3] (setting [14]), 6.250 µg/mL (≈ 10.4 µM); in test [4] (setting [15]) it was 3.125 µg/mL (≈ 5.22 µM); in [5] (setting [16]), 0.098 µg/mL (≈ 0.164 µM); in [6] (setting [17]), 0.004 µg/mL (≈ 0.00668 µM). Further, the “Minimum inhibitory concentrations (MICs)” value in [7] (setting [18]) was under 0.002 µg/mL; in test [8] (setting [19]), 0.195 µg/mL (≈ 0.326 µM); in [9] (setting [20]), 0.195 µg/mL (≈ 0.326 µM); in test [10] (setting [21]), 0.195 µg/mL (≈ 0.326 µM).
Regarding `CO/N=C(\C(=O)N[C@@H]1C(=O)N2C(C(=O)O)=C(COC(C)=O)CS[C@H]12)c1csc(N)n1` [cefotaxime], the MIC in test [1] (setting [12]) was 25 µg/mL (≈ 54.9 µM); in test [2] (setting [13]), 3.12 µg/mL (≈ 6.86 µM); in test [3] (setting [14]), over 100 µg/mL; in [4] (setting [15]), over 10 µg/mL; in test [5] (setting [16]) it was 6.25 µg/mL (≈ 13.7 µM); in [6] (setting [17]) it was 1.56 µg/mL (≈ 3.43 µM). Also, the MIC in test [7] (setting [18]) is 1.56 µg/mL (≈ 3.43 µM); in [8] (setting [19]), 1.56 µg/mL (≈ 3.43 µM); in [9] (setting [20]) it was 6.25 µg/mL (≈ 13.7 µM); in test [10] (setting [21]), 6.25 µg/mL (≈ 13.7 µM).
